Values of other authors as cited in US6509030B2, “Cultured fish carotenoid and polyphenol added feed for improving fish body color tone and fish meat brilliance” (Toshiyuki Sakiura, priority 2000, dated 2003).

CC1=C(/C=C/C(C)=C/C=C/C(C)=C/C=C/C=C(C)/C=C/C=C(C)/C=C/C2=C(C)C(=O)[C@@H](O)CC2(C)C)C(C)(C)C[C@H](O)C1=O [Asthaxanthine, asthaxanthine]
chemical stability, acidic (acidic): very unstable
chemical stability, basic (basic): Unstable
chemical stability, neutral (neutral): Unstable
